According to US20260263401A1, “Topical composition and uses thereof” (UNIVERSIDADE DE COIMBRA, priority 2022, published 2026):

Experiments:
THP-1 cells = assay: Maturation of THP-1 cells assessed by up-regulation of co-stimulatory molecules CD86 and CD54
Experimental: In an embodiment, the THP-1 cell line has been used as a dendritic cell (DC) surrogate for skin sensitizers hazard, following the OECD guidelines. […] The THP-1 cells are stabilized overnight at a density of 5×10^5 cells/mL. On the day after, cells are seeded in 12-well plates at a density of 8×10^5 cells/well and incubated for 24 h with medium (control), Dimethyl sulfoxide (DMSO) (allergens solvent) or with 20 mM of each inhibitor of ACD (NAC), (LYS) or mixture (NAC+LYS). In addition, sensitization is induced with the strong skin allergen 1-fluoro-2,4-dinitrobenzene (DNFB) (8 μM) or Methylisothiazolinone (MI) (100 μM) for 24 h. At the end of the incubation period, cells are washed with ice-cold PBS supplemented with 1% (v/v) inactivated FBS, centrifuged at 300×g for 5 min at 4° C. and pellets are dissolved in ice-cold PBS supplemented with 1% (v/v) inactivated FBS. Then, 100 µL of the cell suspension are incubated with, or without, 3 μL of anti-human CD54 antibody (#353111, Biolegend, San Diego, CA, USA) or anti-human CD86 (#305414, Biolegend, San Diego, CA, USA) antibody for 30 min at 4° C. […] A total of 1×10^4 living cells are considered for analysis. The CD86 and CD54 levels are analyzed by flow cytometry with the acquisition channels FL1 and FL4. Based on the geometric mean fluorescence intensity (MFI), the relative fluorescence intensity (RFI) of CD86 and CD54 for positive control cells and chemical-treated cells is calculated according to the following equation: […]

[1] = In vitro release testing (IVRT), Franz cells, cellulose membrane; type: in vitro ADME; conditions: n=6; for dose depletion: 6 h
Experimental: In an embodiment, release studies of the hydrogels were performed on static vertical Franz cells (PermeGear, Inc., USA), with a diffusion circular area of 0.636 cm^2 and a receptor compartment of 5 mL. For that, infinite dose conditions (1 g) of the formulations were applied in the upper compartment, separated from the receptor by a cellulose membrane (MWCO≈14 000 Da, flat width 33 mm, Sigma-Aldrich), previously hydrated in ultrapurified water for at least 30 min. Before the experiments, the system was equilibrated for a minimum of 30 min. The release medium was composed of phosphate buffer pH 5.5 (guaranteeing the maintenance of sink conditions) and continuously stirred at 600 rpm, at 37° C. A circulating water bath maintained the membrane surface temperature at 32° C. During the release studies, the donor compartment, as well as the receptor sampling arm, were carefully covered to avoid medium evaporation, as well as to conduct the experiments under occlusive conditions. At predetermined time points (0.25, 0.5, 0.75, 1, 2, 3, 4 and 6 h), 300 μl of the medium were withdrawn and immediately replenished with fresh medium. NAC and LYS were quantified by HPLC (High-performance liquid chromatography). Release studies were conducted considering n=6 samples.
In an embodiment, the cumulative amount of NAC and LYS released over time was calculated according to the equation:
[formula] • where Cn is the API (active pharmaceutical ingredient) concentration of the receptor medium at each sampling time, Ci is the API concentration of the ith sample, A the effective diffusion area (0.636 cm^2), and VO (5 mL) and Vi (300 μL) the volumes of the receptor compartment and the collected sample, respectively.
In an embodiment, the release rates were retrieved from the slope of the linear regression obtained by plotting the cumulative amount of API diffused per cm^2 as a function of the square root of time. Additionally, mass balance studies were performed to characterize the extent of dose depletion, according to the equation:
[formula] • where Qf reflects the average cumulative amount released at the end of the assay and Qi the initial amount of API placed on the membrane.
(§1) In an embodiment, NAC and LYS were quantified by reversed-phase high-pressure liquid chromatography (RP-HPLC), using a Shimadzu LC-2010HT chromatographic system, equipped with an LC-20AD quaternary pump, a SIL-20AHT autosampler, a CTO-10AS over and an SPD-M2OA photodiode array detector. […] Using an injection volume of 50 μL, NAC and LYS were determined at 200 and 215 nm and eluted at 5.4 and 2.2 min, respectively.

[2] = In vitro permeation studies (IVPT), Franz cells; type: in vitro ADME, human; conditions: formulated in the hydrogel, single application, up to 24 h, non-occlusive
Excerpt: In an embodiment, the same vertical diffusional system of IVRT studies was used to evaluate the potential in vitro penetration of the active molecules. Human surgical skin pieces (person, type 3 skin, arm tissue) were surgically removed at Central Lisbon University Hospital Centre, after the approval of the Bioethics Committee, and processed as described in (Miranda et al., 2020). Written informed consent was obtained from the participant (Process number 447/2017). One day before the experiments, frozen epidermal specimens were left to thaw at room temperate. Afterwards, the skin sheets, with the stratum corneum side facing up, were gently placed on glass flasks filled with ultrapurified water and left to stabilize overnight, at 4° C. […] NAC and LYS were quantified by RP-HPLC, as described in the section above. […]
as §1

SMILES | levels of the co-stimulatory molecules CD54 and CD86 (RFI), incubated alone (THP-1 cells; THP-1, 24 h, 20 mM, no allergen) | dose depletion [1] | Tlag (time-lagged values) [1] | quantity of the active molecules in the receptor compartment (penetration of stratum corneum of human skin) [2] | CD54 and CD86 maturation levels, pre-incubation before allergen (THP-1 cells; pre-incubation (20 mM) before 24 h DNFB (8 μM) and MI (100 μM))
NCCCC[C@H](N)C(=O)O [LYS, lysine] | do not significantly modify | roughly 17% | approximately 0 h | below the limit of quantification | 
CC(=O)N[C@@H](CS)C(=O)O [NAC, n-acetyl cysteine] |  | roughly 17% | approximately 0 h | below the limit of quantification | significantly decrease
